A value given as a limit tells only on which side of the number the result lay.

Assay [1] has as its target T1, purified HLA DRB4*0101 (Homo sapiens, UniProt P01903+P13762, G164S).
T1 construct: purified from EBV transformed homozygous cell lines or single MHC allele transfected 721.221, C1R, or fibroblast lines; made in house
Kind of assay: HLA-DR radioligand binding inhibition assay, DRB4*0101. The note with it: IC50 nM purified HLA DRB4 *0101, purified HLA DRB4*0101. A digest of the protocol:
(§1)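 Bound radioactivity is read after 3-hour capture of complexes in 0.05% NP40/PBS on antibody-coated plates. Binding reactions pair 1-10 nM labeled peptide with 1 μM to 1 nM HLA-DR for two days.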

The target in assay [2] is T2, purified HLA DRB1*0701 (Homo sapiens, UniProt P01903+P01911, A100R/A102G/A103Q/D57E/D86V/E43K/F76Y/K127E/L162R/M171V/P40G/Q125H/Q99D/R33Q/R42Y/R54Q/S133A/S66F/T210M/V115G/Y107V/Y59L/Y89S).
T2 construct: purified from EBV transformed homozygous cell lines or single MHC allele transfected 721.221, C1R, or fibroblast lines; made in house
Kind of assay: HLA-DR radioligand binding inhibition assay, DRB1*0701. The settings on record: IC50 nM purified HLA DRB1 *0701, purified HLA DRB1*0701. A digest of the protocol: as §1

For assay [3], the target named is T3, purified HLA DRB1*0405 (Homo sapiens, UniProt P01903+P01911, A100R/A169T/D86S/F76Y/I96L/K127E/L162R/M171V/N62H/P40V/Q125Y/R42H/S133A/S149N/S66Y/V115G/V209L/W38E).
T3 construct: purified from EBV transformed homozygous cell lines or single MHC allele transfected 721.221, C1R, or fibroblast lines; made in house
In words: HLA-DR radioligand binding inhibition assay, DRB1*0405. The note with it: IC50 nM purified HLA DRB1 *0405, purified HLA DRB1*0405. A digest of the protocol:
as §1

Assay [4] addresses T4, purified HLA DRB1*0802 (Homo sapiens, UniProt P01903+P01911, A100R/A103L/A169T/F76Y/H45Y/I96F/K41T/L162R/M171V/P40S/Q125H/Q178H/Q39Y/Q99D/R218S/R42G/S66Y/V115G/W38E).
T4 construct: purified from EBV transformed homozygous cell lines or single MHC allele transfected 721.221, C1R, or fibroblast lines; made in house
Kind of assay: HLA-DR radioligand binding inhibition assay, DRB1*0802. The note with it: IC50 nM purified HLA DRB1 *0802, purified HLA DRB1*0802. On the procedure:
(§2) Instead, wells of an opaque white 96-well Optiplate (Packard) are coated with 3 μg (100 μl@ 30 μg/ml) of HLA-specific antibody (Ab) that “capture” complexes of radiolabeled MHC and unlabeled peptide transferred from the molecular binding assay plate in 100 μl of 0.05% NP40/PBS. After a 3-hour incubation period, the supernatant is decanted and scintillation fluid (Microscint 20) added. Captured complexes are then measured on a microplate scintillation and luminescence counter (TopCount NXTTM; Packard).
(§3) HLA-DR purification. Fifteen distinct HLA-DR molecules were used in quantitative assays to measure the binding of peptides to solubilized HLA-DR molecules. […] Briefly, columns of inactivated Sepharose CL4B and Protein A Sepharose were used as pre-columns. HLA-DR molecules were captured by passage of lysates over LB3.1 monoclonal antibody (anti-HLA-DRA) columns. Antibody columns were washed with 10 mM Tris-HCL, pH8.0 with 1% (v/v) NP-40, followed by PBS containing 0.4% (w/v) n-octylglucoside. […] The pH was reduced to 8.0 and the eluates were concentrated by centrifugation in Centriprep 30 concentrators at 2000 rpm (Amicon, Beverly, Mass.).
(§4) Briefly, 1-10 nM of radiolabeled peptide was co-incubated for 2 days at either room temperature or 37° C. with 1 μM to 1 nM purified HLA-DR molecules in the presence of a cocktail of protease inhibitors. Assays were performed at various pH conditions, ranging from pH 4 to pH 7. […] After incubation, the percentage of HLA-DR-bound radioactivity is determined by capturing HLA-DR/peptide complexes on Optiplates (Packard Instruments, Meriden, Conn.) coated with the LB3.1 antibody and determining bound counts per minute using the TopCount microscintillation counter (Packard Instruments). […] Competitor peptides are tested in 2-4 complete, independent experiments, at concentrations ranging from […].

Assay [5] concerns the target T5, purified HLA DRB1*1501 (Homo sapiens, UniProt P01903+P01911).
T5 construct: purified from EBV transformed homozygous cell lines or single MHC allele transfected 721.221, C1R, or fibroblast lines; made in house
Kind of assay: HLA-DR radioligand binding inhibition assay, DRB1*1501. A digest of the protocol: as §1

Assay [6] addresses T6, purified HLA DRB5*0101 (Homo sapiens, UniProt P01903+Q30154).
T6 construct: purified from EBV transformed homozygous cell lines or single MHC allele transfected 721.221, C1R, or fibroblast lines; made in house
In words: HLA-DR radioligand binding inhibition assay, DRB5*0101. The note with it: IC50 nM purified HLA DRB5 *0101, purified HLA DRB5*0101. A digest of the protocol: as §1

Assay [7] deals with T7, purified HLA DRB1*1101 (Homo sapiens, UniProt P01903+P01911, A100R/A169T/A87E/I96F/K41T/L162R/M171V/P40S/Q125H/Q178H/Q39Y/Q99D/R42S/S66Y/T262R/V115G/W38E).
T7 construct: purified from EBV transformed homozygous cell lines or single MHC allele transfected 721.221, C1R, or fibroblast lines; made in house
T7 sequence (P01903 26-254, other chains not shown): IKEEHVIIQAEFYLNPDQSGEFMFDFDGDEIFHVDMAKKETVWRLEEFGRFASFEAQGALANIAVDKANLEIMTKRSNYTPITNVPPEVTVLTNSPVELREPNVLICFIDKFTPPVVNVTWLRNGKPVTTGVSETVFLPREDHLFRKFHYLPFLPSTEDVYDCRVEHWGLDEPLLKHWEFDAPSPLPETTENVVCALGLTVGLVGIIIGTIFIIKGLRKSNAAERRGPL
Kind of assay: HLA-DR radioligand binding inhibition assay, DRB1*1101. The settings on record: IC50 nM purified HLA DRB1 *1101, purified HLA DRB1*1101. A digest of the protocol:
as §1

The target in assay [8] is T8, purified HLA DRB1*0901 (Homo sapiens, UniProt P01903+P01911, A100R/A103E/D57H/D86V/F55Y/F60I/F76Y/I96F/K127E/L162R/M171V/P40D/Q125H/Q99R/R33Q/R42F/S133A/S66N/T210M/V115G/W38K/Y107V/Y59G/Y89S).
T8 construct: purified from EBV transformed homozygous cell lines or single MHC allele transfected 721.221, C1R, or fibroblast lines; made in house
Kind of assay: HLA-DR radioligand binding inhibition assay, DRB1*0901. The note with it: IC50 nM purified HLA DRB1 *0901, purified HLA DRB1*0901. On the procedure: as §2
(§5) HLA-DR purification. Fifteen distinct HLA-DR molecules were used in quantitative assays to measure the binding of peptides to solubilized HLA-DR molecules. […] Briefly, columns of inactivated Sepharose CL4B and Protein A Sepharose were used as pre-columns. HLA-DR molecules were captured by passage of lysates over LB3.1 monoclonal antibody (anti-HLA-DRA) columns. Antibody columns were washed with 10 mM Tris-HCL, pH8.0 with 1% (v/v) NP-40, followed by PBS containing 0.4% (w/v) n-octylglucoside.
(§6) Briefly, 1-10 nM of radiolabeled peptide was co-incubated for 2 days at either room temperature or 37° C. with 1 μM to 1 nM purified HLA-DR molecules in the presence of a cocktail of protease inhibitors. Assays were performed at various pH conditions, ranging from pH 4 to pH 7. […] After incubation, the percentage of HLA-DR-bound radioactivity is determined by capturing HLA-DR/peptide complexes on Optiplates (Packard Instruments, Meriden, Conn.) coated with the LB3.1 antibody and determining bound counts per minute using the TopCount microscintillation counter (Packard Instruments).

The target in assay [9] is T9, purified HLA DRB1*1201 (Homo sapiens, UniProt P01903+P01911, A100R/A169T/D57E/D86V/F55L/H45Y/K41T/L162R/M171V/P40S/Q125H/Q178H/Q39Y/Q99D/R42G/S66L/T262R/V114A/V67L/W38E/Y59H/Y61H/Y89S).
T9 construct: purified from EBV transformed homozygous cell lines or single MHC allele transfected 721.221, C1R, or fibroblast lines; made in house
Kind of assay: HLA-DR radioligand binding inhibition assay, DRB1*1201. On the procedure: as §2, §3, §4

Assay [10] deals with T10, purified HLA DRB1*0401 (Homo sapiens, UniProt P01903+P01911, A100K/A169T/F76Y/I96L/K127E/L162R/M171V/N62H/P40V/Q125Y/R42H/S133A/S149N/S66Y/V115G/V209L/W38E).
T10 construct: purified from EBV transformed homozygous cell lines or single MHC allele transfected 721.221, C1R, or fibroblast lines; made in house
In words: HLA-DR radioligand binding inhibition assay, DRB1*0401. The note with it: IC50 nM purified HLA DRB1 *0401, purified HLA DRB1*0401. A digest of the protocol:
as §1

Assay [11] deals with T11, purified HLA DRB1*1302 (Homo sapiens, UniProt P01903+P01911, A100E/A169T/K41T/L162R/M171V/P40S/Q125H/Q178H/Q39Y/Q99D/R42S/S66N/T262R/V115G/W38E/Y61H).
T11 construct: purified from EBV transformed homozygous cell lines or single MHC allele transfected 721.221, C1R, or fibroblast lines; made in house
In words: HLA-DR radioligand binding inhibition assay, DRB1*1302. The method in brief:
as §1

The target of assay [12] is T12, purified HLA DRB3*0101 (Homo sapiens, UniProt P01903+P79483).
T12 construct: purified from EBV transformed homozygous cell lines or single MHC allele transfected 721.221, C1R, or fibroblast lines; made in house
Kind of assay: HLA-DR radioligand binding inhibition assay, DRB3*0101. The note with it: IC50 nM purified HLA DRB3 *0101, purified HLA DRB3*0101. On the procedure:
as §2, §3, §4

Assay [13] has as its target T13, purified HLA DRB1*0301 (Homo sapiens, UniProt P01903+P01911, A100K/A102G/A103R/A169T/F55Y/I96L/K41T/L162R/M171V/P40S/Q125H/Q178H/Q39Y/R42S/S66N/T106N/T262R/W38E/Y61H).
T13 construct: purified from EBV transformed homozygous cell lines or single MHC allele transfected 721.221, C1R, or fibroblast lines; made in house
Kind of assay: HLA-DR radioligand binding inhibition assay, DRB1*0301. The note with it: IC50 nM purified HLA DRB1 *0301, purified HLA DRB1*0301. On the procedure: as §2, §5, §6

One may read the IC50 as the concentration needed to halve the response being measured. High values mean lower potency, low ones higher potency. In the case of `CC(C)C[C@H](NC(=O)[C@H](Cc1c[nH]cn1)NC(=O)[C@@H](N)CS)C(=O)N[C@@H](Cc1ccccc1)C(=O)N[C@@H](Cc1ccc(O)cc1)C(=O)N[C@@H](CC(N)=O)C(=O)N[C@@H](CCC(=O)O)C(=O)N[C@@H](CCC(N)=O)C(=O)N[C@@H](CCC(N)=O)C(=O)N[C@@H](CCC(=O)O)C(=O)N[C@@H](C)C(=O)N[C@@H](CCCNC(=N)N)C(=O)NCC(=O)N[C@H](C(=O)N[C@@H](Cc1c[nH]cn1)C(=O)O)C(C)C` [Peptide 9019.0023], the IC50 in assay [1] is 5310 nM; in assay [2], above 20000 nM; in assay [3], above 20000 nM; in [4], above 20000 nM; in [5], above 20000 nM; in assay [6] it was above 20000 nM. Further, the 50% inhibitory concentration (IC50) in [7] and in assay [8] was above 20000 nM in each case.
For `CC[C@H](C)[C@H](NC(=O)[C@H](CS)NC(=O)[C@H](CC(C)C)NC(=O)[C@@H](N)CCCCN)C(=O)N[C@@H](Cc1ccc(O)cc1)C(=O)N[C@H](C(=O)N[C@@H](CC(=O)O)C(=O)N[C@@H](CC(N)=O)C(=O)N[C@@H](CO)C(=O)N[C@H](C(=O)N[C@@H](CCCNC(=N)N)C(=O)N1CCC[C@H]1C(=O)N[C@@H](CCC(=O)O)C(=O)N[C@@H](CCC(=O)O)C(=O)N[C@@H](CC(C)C)C(=O)O)[C@@H](C)CC)[C@@H](C)O` [Peptide 9019.0159], the half-inhibitory concentration (IC50) in assay [9] was above 20000 nM; in assay [1], 33 nM; in assay [10], 95 nM; in assay [11], 879 nM; in assay [2], 1100 nM; in assay [3] it was 3170 nM. For the same compound, the IC50 in [12] was above 20000 nM; in [5] it was 25 nM; in [6] it was 4620 nM; in assay [7], above 20000 nM; in assay [13] it was 64 nM; in assay [8], 15900 nM.

For the origin of these results see US20140377340A1, “HLA-DR BINDING PEPTIDES AND THEIR USES” (priority 2007, published 2014).
